Measured values published in PMC8083904 (ACS infectious diseases, 2020).

Assays:
[1] = target: T1, MEZ (Mtb malic enzyme) (Mycobacterium tuberculosis, UniProt P9WK25); settings: read-out: Km or K0.5
[2] = target: T1, MEZ (Mtb malic enzyme)
[3] = target: T1, MEZ (Mtb malic enzyme); remark: listed apart in the source

T1 sequence (P9WK25 whole entry): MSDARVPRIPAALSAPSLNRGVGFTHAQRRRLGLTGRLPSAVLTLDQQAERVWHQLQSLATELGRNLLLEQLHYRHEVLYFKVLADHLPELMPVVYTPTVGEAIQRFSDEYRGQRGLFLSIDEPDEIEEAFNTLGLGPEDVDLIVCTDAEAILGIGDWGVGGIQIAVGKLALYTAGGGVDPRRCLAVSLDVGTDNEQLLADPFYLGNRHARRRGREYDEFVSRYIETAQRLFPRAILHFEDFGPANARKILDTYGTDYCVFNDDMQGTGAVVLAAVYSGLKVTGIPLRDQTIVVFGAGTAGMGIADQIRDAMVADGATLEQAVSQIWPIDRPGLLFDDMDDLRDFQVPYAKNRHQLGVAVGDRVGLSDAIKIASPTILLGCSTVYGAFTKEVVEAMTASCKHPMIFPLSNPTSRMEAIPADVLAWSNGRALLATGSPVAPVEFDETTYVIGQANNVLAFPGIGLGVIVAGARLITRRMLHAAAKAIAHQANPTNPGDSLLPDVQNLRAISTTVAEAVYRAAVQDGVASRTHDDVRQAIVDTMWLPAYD

SMILES	% activity of unmodified control (activation) [2]	other results
O=C(O)C[C@H](O)C(=O)O [L-malate]	–	Km [1]: 18.7 ± 0.5 mM
N[C@@H](CC(=O)O)C(=O)O [aspartate]	aspartate induced a smaller increase in activity, Figure 3A	–
O=C(O)/C=C/C(=O)O [fumarate]	361%	–
O=C(O)CC(=O)C(=O)O [oxaloacetate]	–	% activity of control (inhibition) [3]: 61%
O=C(O)CCC(=O)O [succinate]	290%	–
